Test results: patent US8765779B2, “Tricyclic derivatives and their pharmaceutical use and compositions” (Cephalon, Inc., priority 2009, dated 2014)

Tests used:
[1] = system: rats; conditions: compared to an untreated control group; cited from earlier work
[2] = target: T1, human 5-HT6 receptor (Homo sapiens, UniProt P50406); assay: Human 5-HT6 Receptor Binding Assay ([3H]LSD displacement, scintillation beads); conditions: membranes of CHO-K1 cells with recombinant human 5-HT6, 4 nM [3H]LSD; Table 1, class symbols; read-out: h5-HT6 (Ki)
T1 construct: host or cells: CHO-K1 cells, stably transfected; membranes prepared in house
T1 sequence (P50406 whole entry): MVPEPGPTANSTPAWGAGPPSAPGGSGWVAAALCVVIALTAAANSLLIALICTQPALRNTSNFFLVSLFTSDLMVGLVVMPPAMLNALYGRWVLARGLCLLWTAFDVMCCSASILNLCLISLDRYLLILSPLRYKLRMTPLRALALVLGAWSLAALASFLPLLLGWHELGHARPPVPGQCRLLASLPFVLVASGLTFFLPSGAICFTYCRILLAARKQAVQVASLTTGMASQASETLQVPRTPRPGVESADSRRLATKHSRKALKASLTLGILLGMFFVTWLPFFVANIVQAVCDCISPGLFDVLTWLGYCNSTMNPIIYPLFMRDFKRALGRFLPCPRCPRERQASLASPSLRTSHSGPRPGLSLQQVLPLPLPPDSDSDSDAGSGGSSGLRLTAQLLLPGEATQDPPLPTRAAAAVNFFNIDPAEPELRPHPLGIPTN

[3] = system: rats; conditions: rat model of tonic, persistent pain; cited from earlier work

Structure (SMILES)	non-REM (NREM) sleep [1]	Ki [2]	melting point	antinociceptive effect [3]
CN1CCN(c2cccc3c(S(=O)(=O)c4ccccc4)c[nH]c23)CC1 [RO 4368554]	increase in non-REM (non-rapid eye movement or NREM) sleep			
O=S(=O)(c1ccc2c(c1)OC1CNCCC21)c1nc2ccccc2s1 (stereo not shown) [Example 65]		< 500 nM	195 to 196 °C	
O=S(=O)(c1cccc(F)c1)c1ccc2c3c(oc2c1)C1(COC1)NCC3 [Example 48, 7-[(3-fluorophenyl)sulfonyl]-3,4-dihydro-2H-spiro[1-benzofuro[2,3-c]pyridine-1,3′-oxetane]]		< 500 nM	153 to 155 °C	
O=S(=O)(c1ccc2c3c(oc2c1)CNCC3)c1cccc(Cl)c1F [Example 81]		< 500 nM	245 to 246 °C	
O=S(=O)(c1ccc2c(c1)OC1CNCCC21)c1c(Cl)cccc1Cl (stereo not shown) [Example 64]		< 500 nM	222 to 223 °C	
Cc1c(Cl)cccc1S(=O)(=O)c1ccc2c3c(oc2c1)CNCC3 [Example 82]		< 500 nM	258 to 259 °C	
CC12CCNCC1Oc1ccc(S(=O)(=O)c3cc(F)cc(F)c3)cc12 (stereo not shown) [Example 94]		< 500 nM	196 to 198 °C	
CC12CCNCC1Oc1ccc(S(=O)(=O)c3cccc(Cl)c3)cc12 (stereo not shown) [Example 100]		< 500 nM	160 to 162 °C	
O=S(=O)(c1ccc2c(c1)OC1CNCCC21)c1nc2ccccc2[nH]1 (stereo not shown) [Example 69]		< 500 nM	188 to 189 °C	
CC(C)Oc1cccc(S(=O)(=O)c2ccc3c(c2)C2(C)CCNCC2O3)c1 (stereo not shown) [Example 98]		< 500 nM	162 to 164 °C	
CCNC(=O)Oc1cccc(S(=O)(=O)c2ccc3c(c2)OC2CNCCC32)c1 (stereo not shown) [Example 628, 3-[1,2,3,4,4a,9a-Hexahydro[1]benzofuro[2,3-c]pyridin-7-ylsulfonyl]phenyl ethylcarbamate]		< 500 nM	217 to 219 °C	
CC(C)Oc1cccc(S(=O)(=O)c2ccc3c4c(oc3c2)CNCC4(C)C)c1 [Example 87]		< 500 nM	251 to 252 °C	
COc1cc(OCc2ccccc2)cc(S(=O)(=O)c2ccc3c(c2)OC2CNCCC32)c1 (stereo not shown) [Example 76]		< 500 nM	202 to 203 °C	
COc1ccc2sc(S(=O)(=O)c3ccc4c(c3)OC3CNCCC43)nc2c1 (stereo not shown) [Example 71]		> 1000 nM	222 to 223 °C	
CC12CCNCC1Oc1ccc(S(=O)(=O)c3cccc(Cl)c3Cl)cc12 (stereo not shown) [Example 105]		< 500 nM	242 to 244 °C	
O=S(=O)(c1cccc(-n2cnnn2)c1)c1ccc2c(c1)OC1CNCCC21 (stereo not shown) [Example 75]		> 1000 nM	> 300 °C	
CC1(C)CNCc2oc3cc(S(=O)(=O)c4cccc(F)c4)ccc3c21 [Example 86]		< 500 nM	291 to 293 °C	
CC12CCNCC1Oc1ccc(S(=O)(=O)c3ccccn3)cc12 (stereo not shown) [Example 91]		> 1000 nM	255 to 257 °C	

Structure (SMILES)	non-REM (NREM) sleep [1]	Ki [2]	melting point	antinociceptive effect [3]
COc1ccc(S(=O)(=O)c2ccc3c(c2)C2(C)CCNCC2O3)cc1F (stereo not shown) [Example 95]		< 500 nM	185 to 187 °C	
O=S(=O)(c1cccc(O)c1)c1ccc2c3c(oc2c1)CNCC3 [Example 627, 3-(1,2,3,4-Tetrahydro-benzo[4,5]furo[2,3-c]pyridine-7-sulfonyl)-phenol]		< 500 nM	279 to 281 °C	
O=S(=O)(c1ccc2c3c(oc2c1)CNCC3)c1cccc2nsnc12 [Example 83]		< 500 nM	242 to 243 °C	
COc1cc2c(cc1S(=O)(=O)c1cccc(Cl)c1Cl)C1CCNCC1O2 (stereo not shown) [Example 88]		< 500 nM	216 to 217 °C	
CC12CCNCC1Oc1ccc(S(=O)(=O)c3cccc(F)c3)cc12 (stereo not shown) [Example 90]		< 500 nM	168 to 171 °C	
CC12CCNCC1Oc1ccc(S(=O)(=O)c3cccc(Cl)c3)cc12 (stereo not shown) [Example 104]		> 1000 nM	216 to 218 °C	
CC1(C(F)F)NCCc2c1oc1cc(S(=O)(=O)c3cccc(F)c3F)ccc21 (single isomer, unassigned; enantiomer 2) [Example 472, 1-(Difluoromethyl)-7-[(2,3-difluorophenyl)sulfonyl]-1-methyl-1,2,3,4-tetrahydro[1]benzofuro[2,3-c]pyridine, enantiomer 2]		< 500 nM	249 to 252 °C	
CC(=O)Nc1ccc(S(=O)(=O)c2ccc3c(c2)C2(C)CCNCC2O3)cc1 (stereo not shown) [Example 96]		> 1000 nM	212 to 214 °C	
Cc1cncc(Oc2cccc(S(=O)(=O)c3ccc4c(c3)OC3CNCCC43)c2)n1 (stereo not shown) [Example 63]		< 500 nM	128 to 130 °C	
CC12CCNCC1Oc1ccc(S(=O)(=O)c3cccc(Cl)c3)cc12 (stereo not shown) [Example 103]		< 500 nM	218 to 220 °C	
O=S(=O)(c1ccc2c(c1)OC1CNCCC21)c1cccc2nonc12 (stereo not shown) [Example 72]		> 1000 nM	189 to 190 °C	
CC12CCNCC1Oc1ccc(S(=O)(=O)c3ccc(F)cc3)cc12 (stereo not shown) [Example 92]		> 1000 nM	163 to 165 °C	
O=S(=O)(c1cccc(F)c1)c1ccc2c3c(oc2c1)C1(CCOCC1F)NCC3 (single isomer, unassigned) [Example 55, 3′-Fluoro-7-[(3-fluorophenyl)sulfonyl]-2′,3,3′,4,5′,6′-hexahydro-2H-spiro[1-benzofuro[2,3-c]pyridine-1,4′-pyran]]		< 500 nM	251 to 260 °C	
O=S(=O)(c1ccc2c(c1)OC1CNCCC21)c1cccc2nsnc12 (stereo not shown) [Example 67]		< 500 nM	195 to 196 °C	
O=S(=O)(c1cccc(OCc2ccccc2)c1)c1ccc2c(c1)OC1CNCCC21 (stereo not shown) [Example 74]		< 500 nM	238 to 240 °C	
Cc1ccc2nsnc2c1S(=O)(=O)c1ccc2c(c1)OC1CNCCC21 (stereo not shown) [Example 70]		> 1000 nM	200 to 201 °C	
COc1ccc(NS(=O)(=O)c2sc3ccc(Cl)cc3c2C)cc1N1CCNCC1 [SB-271046]				short-lived, antinociceptive effect
CC1CNCc2oc3cc(S(=O)(=O)c4cccc(F)c4)ccc3c21 (stereo not shown) [Example 102]		< 500 nM	> 300 °C	
